Structures are written as SMILES. Like-named read-outs stand apart in the source and are kept apart here.

Data set [1] addresses T1, human growth hormone (Homo sapiens, UniProt P01241).
T1 construct: purchased National Institute of Biological Standards and Control; further samples on prescription from a GP surgery
The data set is described as follows: Recovery of structural integrity of human growth hormone in dry formulations following gamma irradiation (HPLC). The settings on record: as excipient in the formulation, disulphide bridge, HPLC. The format is physicochemical.

The target in the next data set is T2, glucose oxidase (Aspergillus niger, UniProt P13006).
T2 construct: purchased Biocatalysts G575P
T2 sequence (P13006 17-605): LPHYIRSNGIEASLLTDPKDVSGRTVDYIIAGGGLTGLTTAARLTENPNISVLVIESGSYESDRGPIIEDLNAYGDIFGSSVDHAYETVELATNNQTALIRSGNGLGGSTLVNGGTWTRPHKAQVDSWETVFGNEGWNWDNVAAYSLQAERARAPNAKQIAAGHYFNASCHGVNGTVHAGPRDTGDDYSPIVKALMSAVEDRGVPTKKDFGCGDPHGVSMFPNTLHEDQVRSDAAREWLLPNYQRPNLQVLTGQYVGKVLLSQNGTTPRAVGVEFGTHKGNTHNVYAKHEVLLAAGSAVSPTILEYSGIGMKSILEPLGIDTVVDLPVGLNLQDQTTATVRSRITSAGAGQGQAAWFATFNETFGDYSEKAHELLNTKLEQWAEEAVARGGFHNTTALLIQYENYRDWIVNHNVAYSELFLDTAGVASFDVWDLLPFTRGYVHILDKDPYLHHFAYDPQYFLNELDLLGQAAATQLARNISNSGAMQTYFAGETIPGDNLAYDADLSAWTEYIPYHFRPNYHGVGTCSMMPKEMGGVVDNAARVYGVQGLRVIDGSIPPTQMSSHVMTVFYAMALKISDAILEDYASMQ
Nature of the data set: Activity recovery of glucose oxidase in dry formulations following gamma irradiation. The format is physicochemical. The note with it: for Enzyme activity remaining after gamma-irradiation: glucose oxidase 350 μg mL^−1 prior to drying, dry, 25-40 kGy, ambient temperature. The procedure: (§1) In each example, an aqueous solution of a protein was prepared with selected additives in an Eppendorf tube or in a glass vial. Water was removed from the formulation by drying under a stream of nitrogen at 30° C. and subsequent incubation at atmospheric pressure in the presence of a dessicant. The Eppendorf tubes or the glass vials were sealed and delivered to an industrial sterilisation service for gamma irradiation, with a dose range typical for sterile medical products. The gamma-irradiated samples were reconstituted on their return and analysed for protein activity or structural integrity. The results were compared with those achieved using control (i.e. non-irradiated) samples.
(§2) The dry samples (approx. 20 μg in an Eppendorf tube) were gamma-irradiated by an industry-standard commercial sterilising service provided by Isotron PLC (Swindon, Wilts, UK), using a Cobalt 60 gamma source at ambient temperature. The radiation dose was in the range of 25-40 kGy.
The original solutions (i.e. solutions prior to drying) contained 350 μg mL^−1 of glucose oxidase and typically the total of 100 mM of protective compounds (i.e. 100 mM in case of a single compound, 50 mM+50 mM in case of two compounds, 33.3 mM+33.3 mM+33.3 mM in the case of three compounds etc.). The solutions were dried and gamma irradiated. Following the gamma irradiation, the samples, both pre- and post-gamma irradiated, were assayed for glucose oxidase activity. This was performed according to the following procedure:
Water was added to the sample to achieve 350 μg mL^−1 of glucose oxidase. 50 μL of the solution was added to 50 mL of deionised water. The following solutions were then added: • 10 mL of reagent mix (5 parts of 0.1 M sodium phosphate, pH 6+4 parts 2% w/w starch+1 part of 1 mg/mL lactoperoxidase enzyme); • 5 mL of 100 mM potassium iodide; and • 5 mL of 20% w/w glucose solution.
These were mixed together quickly. Time=0 was counted from the addition of the glucose. After 5 min, 1 ml of 5 M aq. hydrochloric acid was added to stop the reaction. The absorbance was then read at 630 nm using a Unicam UV-visible spectrophotometer (Type: Helios gamma). If the colour intensity was too great to allow an accurate reading, the sample was diluted with a defined volume of deionised water to bring the colour back on scale. The results were expressed as percentage recovery, by reference to the absorbance measured in the pre-gamma irradiation samples.

For data set [2] the following is noted: cited from earlier work; for Rate constant k: Table 1, singlet oxygen scavengers, measured in specified solvents.
Data set [3] has as its target T1, human growth hormone. Nature of the data set: Recovery of structural integrity of human growth hormone in dry formulations following gamma irradiation (HPLC). The settings on record: Table 7, singlet oxygen scavengers, structural integrity by HPLC, human growth hormone 2.5 mg mL^−1 prior to drying, 25-40 kGy. Format: physicochemical. The procedure: as §1, §2
Mobile phase was prepared by mixing 71 parts (by volume) of a solution of TRIS (0.05 M, in water adjusted with hydrochloric acid to a pH of 7.5) and 29 parts (by volume) of n-propylalcohol. The mobile phase was filtered prior to its use. The liquid chromatograph (Agilent 1100 series) was equipped with a 214 nm detector and a 4.6×250 mm column (Phenomenex 00G-4167-E0) packed with butylsilyl silica gel with a granulometry of 5 μm and a porosity of 30 nm, maintained at 45° C. The flow rate was maintained at 0.5 mL min^−1. 15 μL of aqueous samples of human growth hormone (typically 1-2.5 mg mL^−1) were injected. Results were expressed as % of peak area corresponding to the gamma irradiated sample with respect to that measured in non-irradiated sample.

For the next data set, the system named is Sandostatin. Nature of the data set: Recovery of structural integrity of Sandostatin in dry formulations following gamma irradiation (HPLC). Format: physicochemical. The note with it: Table 8, singlet oxygen scavengers, structural integrity by HPLC, excipient:Sandostatin weight ratio 10:1, 25-40 kGy. The procedure:
as §1, §2
Mobile phase A was 0.1 M triethylamine adjusted to pH 2.3 with phosphoric acid. Mobile phase B was acetonitrile. The mobile phases were filtered prior to their use. The following linear gradient was used: time 0: 90% A+10% B; time 35 min: 60% A+40% B. The liquid chromatograph (Agilent 1100 series) was equipped with a 214 nm detector, guard column and a 4.6×150 mm C18 column with a granulometry of 5 μm and a porosity of 30 nm, maintained at ambient temperature. The flow rate was maintained at 1.0 mL min^−1. Injection volume was 50 μL (typically sandostatin at 200 μg mL^−1). Results were expressed as % of main peak area (i.e. area of the peak corresponding to intact sandostatin measured in the gamma irradiated sample with respect to that measured in non-irradiated sample of identical composition). A chromatogram of a standard solution of sandostatin was recorded after every 12 samples to ensure that no drift in the position of the major peak had occurred. The control measurements ruled out any ambiguity in interpreting the chromatograms.

A further data set addresses T3, catalase (Bos taurus, UniProt P00432).
T3 construct: Catalase (from bovine liver, Sigma C9322, 2380 U /mg solid); purchased Sigma C9322; host or cells: bovine liver
T3 sequence (P00432 2-527 limits assumed): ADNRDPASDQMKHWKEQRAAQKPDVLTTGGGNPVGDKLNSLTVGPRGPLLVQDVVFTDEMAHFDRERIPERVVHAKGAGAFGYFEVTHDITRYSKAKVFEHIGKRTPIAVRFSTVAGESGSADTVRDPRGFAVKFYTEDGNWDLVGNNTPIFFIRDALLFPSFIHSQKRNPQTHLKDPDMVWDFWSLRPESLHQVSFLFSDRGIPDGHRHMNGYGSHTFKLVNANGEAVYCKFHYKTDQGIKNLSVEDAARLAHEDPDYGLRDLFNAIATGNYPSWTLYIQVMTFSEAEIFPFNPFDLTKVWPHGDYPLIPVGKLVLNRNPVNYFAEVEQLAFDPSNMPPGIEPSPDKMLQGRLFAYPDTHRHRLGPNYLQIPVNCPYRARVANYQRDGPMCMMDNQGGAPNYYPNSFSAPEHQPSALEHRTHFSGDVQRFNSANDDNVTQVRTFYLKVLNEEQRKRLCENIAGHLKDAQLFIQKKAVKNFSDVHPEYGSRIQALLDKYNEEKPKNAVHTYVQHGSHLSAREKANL
The data set is described as follows: Activity recovery of catalase in dry formulations following gamma irradiation. The format is physicochemical, bovine. The note with it: Table 6, singlet oxygen scavengers; catalase 100 μg mL^−1 prior to drying; dry; 25-40 kGy, ambient temperature. The procedure:
as §1, §2
The original solutions (i.e. solutions prior to drying) contained 100 μg mL^−1 of catalase and typically the total of 100 mM of protective compounds (i.e. 100 mM in case of a single compound, 50 mM+50 mM in case of two compounds, 33.3 mM+33.3 mM+33.3 mM in the case of three compounds etc.). The solutions were dried and gamma irradiated. Following the gamma irradiation, the samples, both pre- and post-gamma irradiated, were assayed for […] activity. This was performed according to the following procedure:
Water was added to the sample to achieve 100 μg mL^−1 of catalase. 100 μL of the solution was added to a mixture of 18 mL of PBS and 2 mL of hydrogen peroxide (30 mM in water) in a 125 mL polypropylene pot and mixed. The resulting mixture was incubated at room temperature precisely for 30 min. In the meantime, the following reagents were mixed in a plastic cuvette for spectrophotometric measurements: • 2.73 mL of citrate/phosphate buffer (0.1 M, pH 5.0) • 100 μL of tetramethylbenzidine (TMB) (3 mg/mL, dissolved in dimethyl sulphoxide (DMSO)) • 100 μL of lactoperoxidase
Following the 30 min incubation period, 70 μL of the catalase containing mixture was added to the cuvette and absorbance was read in approximately 30 s. The results were expressed as percentage recovery, by reference to the absorbance measured in the fresh samples (i.e. prior to incubation at increased temperature).

The mark [4] stands for this setting: Table 5, singlet oxygen scavengers.

T1 sequence (P01241 27-217): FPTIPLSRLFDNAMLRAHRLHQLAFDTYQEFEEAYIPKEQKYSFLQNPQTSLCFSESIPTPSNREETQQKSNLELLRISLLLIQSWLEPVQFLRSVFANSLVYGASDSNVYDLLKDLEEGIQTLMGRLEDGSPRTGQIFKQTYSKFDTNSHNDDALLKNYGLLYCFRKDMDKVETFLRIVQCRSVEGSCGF

For the compound `CC(=O)N[C@@H](CS)C(=O)O` [N-Acetylcysteine], the “Compatibility of the compound with human growth hormone” value on human growth hormone [1] is “**Compound was found incompatible with human growth hormone”; at human growth hormone [1] (listed as N-acetylcysteine), “incompatibility with human growth hormone”. Besides, at glucose oxidase (as excipient in the formulation), the “Compatibility of the compound with glucose oxidase” value is recorded as “**Compound was found incompatible with glucose oxidase”.
Regarding `N[C@@H](Cc1c[nH]c2ccccc12)C(=O)O` [Tryptophan], the Rate constant k result in data set [2] is given as “k = 1.3 × 10^7 L mol^−1 s^−1”. Further, the “Rate of reaction with singlet oxygen” value in data set [2] (Table 5), in data set [2] (Table 6), in data set [2] (Table 7) and in data set [2] (Table 8) was 1.3e+07 M⁻¹ s⁻¹ throughout. Moreover, at human growth hormone [3], the “Structural integrity remaining after gamma-irradiation (HPLC)” value is 54.6%. Besides, the figures for the “Enzyme activity remaining after gamma-irradiation” value (from here on “Enzyme activity remaining”) with Sandostatin, on catalase and on glucose oxidase (setting [4]) were 82.2%, 9.1% and 37.0%, respectively.
Turning to `N[C@@H](CS)C(=O)O` [Cysteine], the “Compatibility of the compound with human growth hormone” value at human growth hormone [1] is on record as “**Compound was found incompatible with human growth hormone”; at human growth hormone [1] (listed as cysteine), “incompatibility with human growth hormone”. In data set [2], the Rate constant k entry is on record as “k = 5 × 10^7 L mol^−1 s^−1”. For the same compound, at glucose oxidase (Table 3, prior-art antioxidants, vs non-irradiated), the “Enzyme activity remaining” value came to 49.1%.
Consider `N[C@@H](Cc1c[nH]cn1)C(=O)O` [Histidine], for which, in data set [2], the Rate constant k entry is on record as “k = 4.6 × 10^7 L mol^−1 s^−1”. For the same compound, the “Rate of reaction with singlet oxygen” value in data set [2] (Table 5), in data set [2] (Table 6), in data set [2] (Table 7) and in data set [2] (Table 8) was 4.6e+07 M⁻¹ s⁻¹ in each case. Besides, at human growth hormone [3], the “Structural integrity remaining after gamma-irradiation (HPLC)” value is 55.5%. Also, the “Enzyme activity remaining” value worked out at 85.0% in the data set with Sandostatin, 18.3% at catalase and 57.9% at glucose oxidase (setting [4]).

Source of the values: patent publication US20100029542A1, “PROTEIN STERILISATION BY RADIATION AND ADDITION OF A STABILISING COMPOSITION” (priority 2006, published 2010).
